Assay results published in patent US9221761B2, “Method for inhibition of deubiquitinating activity” (Vivolux AB, priority 2011, dated 2015).
Values belong to the compound of their own block, whether it stands above or below them.

Key:
HCT116 = assay: FMCA (Fluorometric Microculture Cytotoxicity Assay) cytotoxicity; format: cell-based; settings: for cytotoxicity relative to structurally corresponding compounds with a 6-membered ring moiety: HCT-116, 72 hours, survival index, FIGS. 3b, 3d, 3f; for IC50: Table 2, 72 hours of continuous compound exposure
Procedure: FIGS. 1a to 1o are diagrams illustrating induction of dose-dependent cytotoxicity after 72 hours of continuous compound exposure to the reporter cell line HCT-116 by embodiments of the compound of the invention, as measured FMCA (Fluorometric Microculture Cytotoxicity Assay), as well as absence of such induction by structurally related compounds not comprised by the invention. Treated cells were compared to untreated controls (survival index);
Determination of cell apoptosis and viability. For determination of apoptosis parental HCT-116 p53+/+ cells are treated with the increasing doses of the compound of the invention for 24 h. […] HCT-116 cells are seeded in 96-well microtiter plates at 10,000 cells per well and incubated overnight. Cells are treated with indicated drug for 24 h. At the end of the incubation period, NP40 is added to the tissue culture medium to 0.1% and 25 μl of the content of each well was assayed using the M30-Apoptosense® ELISA as previously described (31). Cell viability is determined by measuring acid phosphatase activity or using the FMCA method (32). For the acid phosphatase activity cells are seeded at 5000 cells per well in 96-well culture plates and incubated for 12 h at 37° C. Compounds are added to the cells in growth media and incubated for 72 h at 37° C. Cells are washed with 200 μl warm PBS. 100 μl of para-nitrophenyl phosphate (pNPP, 2 mg/ml) in Na acetate buffer pH 5 (NaAc 0.1 M, 0.1% Triton-X-100) is added per well. Cells are incubated for 2 h after which reaction was stopped by addition of 1N NaOH. Absorbance is measured at 405 nm. The dose-dependent cytotoxicity of a number of embodiments of the compound of the invention is illustrated in FIGS. 1a-1o.
For the FMCA assay cells are seeded in the drug-prepared 384-well plates using the pipetting robot Precision 2000 (Bio-Tek Instruments Inc., Winooski, Vt.). The plates are incubated for 72 h and then transferred to an integrated HTS SAIGAN Core System consisting of an ORCA robot (Beckman Coulter) with CO2 incubator (Cytomat 2C, Kendro, Sollentuna, Sweden), dispenser module (Multidrop 384, Titertek, Huntsville, Ala.), washer module (ELx 405, Bio-Tek Instruments Inc), delidding station, plate hotels, barcode reader (Beckman Coulter), liquid handler (Biomek 2000, Beckman Coulter) and a multipurpose reader (FLUOstar Optima, BMG Labtech GmbH, Offenburg, Germany) for automated FMCA. Survival index (SI) is defined as the fluorescence of test wells in percentage of controls with blank values subtracted.
FIGS. 3b, 3d, 3f are diagrams illustrating the cytotoxicity of compounds of the invention nos. 1546, 1547, and 1570 with a 7-membered ring moiety in comparison to structurally corresponding compounds not comprised by the invention with a 6-membered ring moiety. Their induction of dose-dependent cytotoxicity was determined after 72 hours of continuous compound exposure to the reporter cell line HCT-116. Treated cells were compared with untreated controls. Cytotoxicity is visualized as survival index (SI) over the range of about 90% SI to about 0% SI in dependence on compound concentration.

[1] = tested on: MelJuSo Ub-YFP reporter cell line; assay: Proteasome inhibition in reporter cell line, YFP accumulation in IncuCyte-FLR; format: cell-based; settings: Table 2; YFP accumulation measured for 48 hours
Source text: Cell culture. MCF7 cells are maintained in MEM/10% fetal calf serum. HCT-116 p53+/+, p53−/−, Bcl-2+/+, PUMA−/− and BAX−/− cells are maintained in McCoy's 5A modified medium/10% fetal calf serum. The HCT-116 p53+/+, p53−/−, PUMA−/− and BAX−/− are generated as described (25). The HCT-116 Bcl-2+/+ cell line was generated by transfecting parental HCT-116 p53+/+ cells with pCEP4 Bcl-2 (Addgene plasmid 16461) (26) and isolating high expression clones. FaDu and LLC3 cells are maintained in DMEM high glucose medium supplemented with 10% fetal calf serum, Na pyruvate, Hepes and non-essential amino acids. 4T1.12B carcinoma cells are maintained in RPMI medium supplemented with 10% fetal calf serum. The proteasome reporter cell line MelJuSo Ub-YFP was generated as described (12). Cells were maintained in Dulbecco's Modified Eagle's Medium/10% fetal calf serum. […] The retinal epithelial cell line was generated as described (28). All cells are maintained at 37° C. in 5% CO2.
The compound of the invention induces proteasome inhibition. The reporter cell line MelJuSo Ub-YFP, which is engineered to accumulate yellow fluorescent protein (YFP) upon proteasome inhibition (12), was used for compound evaluation. The accumulation of YFP was measured for 48 hours in an IncuCyte-FLR system (Essen Bioscience, Essen, UK), which is an automated fluorescence microscope. Numbers of positive cells per field were used as a measure of proteasome inhibition.

[2] = Dissolution in 25% by weight Kolliphor HS15; format: physicochemical; settings: for amount of compound contained in prepared solution (10 ml): 18 mg starting weight, 25% w/w Kolliphor HS15, ultrasound about 50° C., non-dissolved residue deducted
Procedure: Pharmaceutical composition E (solution). For intraperitoneal administration a 25% by weight Kolliphor HS15 stock solution was prepared by melting an entire container of Kolliphor HS15 (Sigma 42966) by warming to 60° C. and diluting with deionized water to 25% w/w. To compound #1570 (18.0 mg) in a 10 mL sample tube was added 10.0 mL of the stock solution and the tube vortexed, treated with ultrasound at about 50° C. for about 2 h, and occasionally heated to about 83° C. […] By the same procedure solutions of compounds #1546 and #1571 were prepared; these compounds were however not fully dissolved. The non-dissolved residue was weighed, and the weight deducted from the starting weight of compound (18 mg).

amount of compound contained in prepared solution (10 ml) [2]: 8.5 mg
Compound: C=CC(=O)N1CCC(=Cc2ccc([N+](=O)[O-])cc2)C(=O)C(=Cc2ccc([N+](=O)[O-])cc2)C1 [Compound 1546]
cytotoxicity relative to structurally corresponding compounds with a 6-membered ring moiety (HCT116): more cytotoxic | IC50 (HCT116): 1200 nM | MeJuSo-UB, lowest effective conc. [1]: 2 µM

dissolution of 18.0 mg in 10.0 mL stock solution ([2]; 25% w/w Kolliphor HS15, ultrasound about 50° C. about 2 h): clear solution
Compound: C=CC(=O)N1CCC(=Cc2ccc(F)c([N+](=O)[O-])c2)C(=O)C(=Cc2ccc(F)c([N+](=O)[O-])c2)C1 [Compound 1570]
cytotoxicity relative to structurally corresponding compounds with a 6-membered ring moiety (HCT116): more cytotoxic | IC50 (HCT116): 500 nM | MeJuSo-UB, lowest effective conc. [1]: 0.25 µM

amount of compound contained in prepared solution (10 ml) [2]: 11.0 mg
Compound: CC(=O)N1CCC(=Cc2ccc(F)c([N+](=O)[O-])c2)C(=O)C(=Cc2ccc(F)c([N+](=O)[O-])c2)C1 [Compound 1571]
IC50 (HCT116): 900 nM | MeJuSo-UB, lowest effective conc. [1]: 0.25 µM

Compound: O=C1/C(=C/c2ccc(C(F)(F)F)cc2)CCN(C(=O)Cc2ccccn2)C/C1=C\c1ccc(C(F)(F)F)cc1 [Compound 1644]
IC50 (HCT116): 1400 nM | MeJuSo-UB, lowest effective conc. [1]: 1 µM

Compound: CC(=O)OCC(=O)N1CC/C(=C\c2ccc(Cl)c(F)c2)C(=O)/C(=C/c2ccc(Cl)c(F)c2)C1 [Compound 1645]
IC50 (HCT116): 2500 nM | MeJuSo-UB, lowest effective conc. [1]: 2 µM

Compound: O=C1/C(=C/c2ccc(F)c([N+](=O)[O-])c2)CCN(C(=O)Cc2ccccn2)C/C1=C\c1ccc(F)c([N+](=O)[O-])c1 [Compound 1648]
IC50 (HCT116): 800 nM | MeJuSo-UB, lowest effective conc. [1]: 0.5 µM

Compound: O=C1C(=Cc2cc(F)c(F)c(F)c2)CCN(C(=O)Cc2cccnc2)CC1=Cc1cc(F)c(F)c(F)c1 [Compound 1650]
IC50 (HCT116): 1900 nM | MeJuSo-UB, lowest effective conc. [1]: 1 µM

Compound: CC(=O)OCC(=O)N1CC/C(=C\c2cc(F)c(F)c(F)c2)C(=O)/C(=C/c2cc(F)c(F)c(F)c2)C1 [Compound 1651]
IC50 (HCT116): 800 nM | MeJuSo-UB, lowest effective conc. [1]: 0.5 µM

Compound: O=C1/C(=C/c2cc(F)c(F)c(F)c2)CCN(C(=O)Cc2ccccn2)C/C1=C\c1cc(F)c(F)c(F)c1 [Compound 1653]
IC50 (HCT116): 710 nM | MeJuSo-UB, lowest effective conc. [1]: 1 µM

Compound: O=C1C(=Cc2ccc(Cl)c(C(F)(F)F)c2)CCN(C(=O)Cc2cccnc2)CC1=Cc1ccc(Cl)c(C(F)(F)F)c1 [Compound 1655]
IC50 (HCT116): 1000 nM | MeJuSo-UB, lowest effective conc. [1]: 1 µM

Compound: CC(=O)OCC(=O)N1CC/C(=C\c2ccc(Cl)c(C(F)(F)F)c2)C(=O)/C(=C/c2ccc(Cl)c(C(F)(F)F)c2)C1 [Compound 1656]
IC50 (HCT116): 700 nM | MeJuSo-UB, lowest effective conc. [1]: 0.5 µM

Compound: O=C(Cc1ccccn1)C(=O)N1CCC(=Cc2ccc(Cl)c(C(F)(F)F)c2)C(=O)C(=Cc2ccc(Cl)c(C(F)(F)F)c2)C1 [Compound 1658]
IC50 (HCT116): 800 nM | MeJuSo-UB, lowest effective conc. [1]: 0.5 µM

Compound: CC(=O)OCCC(=O)N1CCC(=Cc2ccc(Cl)c(F)c2)C(=O)C(=Cc2ccc(Cl)c(F)c2)C1 [Compound 1660]
IC50 (HCT116): 2400 nM | MeJuSo-UB, lowest effective conc. [1]: 2 µM

Compound: CC(=O)OCCC(=O)N1CCC(=Cc2ccc(F)c([N+](=O)[O-])c2)C(=O)C(=Cc2ccc(F)c([N+](=O)[O-])c2)C1 [Compound 1662]
IC50 (HCT116): 2100 nM | MeJuSo-UB, lowest effective conc. [1]: 1 µM

Compound: CC(=O)OCCC(=O)N1CCC(=Cc2cc(F)c(F)c(F)c2)C(=O)C(=Cc2cc(F)c(F)c(F)c2)C1 [Compound 1664]
IC50 (HCT116): 2800 nM | MeJuSo-UB, lowest effective conc. [1]: 4 µM

Compound: CC(=O)OCCC(=O)N1CCC(=Cc2ccc(Cl)c(C(F)(F)F)c2)C(=O)C(=Cc2ccc(Cl)c(C(F)(F)F)c2)C1 [Compound 1666]
IC50 (HCT116): 1300 nM | MeJuSo-UB, lowest effective conc. [1]: 1 µM

Compound: (3E,5E)-1-acetyl-5-[(4-fluorophenyl)methylidene]-3-[(4-ethoxyphenyl)methylidene]azepan-4-one [Compound 1579]
IC50 (HCT116): 5900 nM | MeJuSo-UB, lowest effective conc. [1]: 8 µM
